Tests used:
[1] = tested on: cavernosalen glatten Muskulatur; test: Organ bath contraction study with corpus cavernosum strips (phenylephrine-induced contraction); design: species or system Kaninchen; settings: for Relaxation der kavernösen, glatten Muskulatur: Kaninchen, phenylephrine-precontracted tissue
Method: Männliche New Zealand White-Kaninchen (Gewicht: 2,5-3,0 kg) wurden mit CO2-Gas eingeschläfert. Das cavernöse Gewebe wurde beim Sezieren in eine HEPES-gepufferte Lösung (20°C, pH 7,4) eingebracht. Die oben liegende Skelettmuskulatur wurde vorsichtig entfernt, um nicht die darunterliegende Tunica albuginea zu beschädigen. Im proximalen Ende der Tunica wurde ein Schnitt ausgeführt, während sie distal erweitert wurde. Dann wurde das Corpus Cavernosum bilateral aus der Tunica herausgelöst.
Für menschliches Gewebe wurde das Verfahren zum Ernten von Gewebe vom Institutional Review Board for Human Studies am Boston University Medical Center genehmigt. Cavernöses Gewebe wurde von Patienten erhalten, die sich der Implantation einer Penisprothese zur Behandlung einer erektilen Dysfunktion unterzogen. Im Operationssaal wurden Biopsien der Corpora cavernosa sofort in eisgekühlte (4°C) physiologische Salzlösung gelegt und zum Labor transportiert. Gewebestreifen mit einer Größe von etwa 3 mm x 3mm x 10 mm wurden zugeschnitten und für Organbadstudien gemäß einem ähnlichen Verfahren wie dem nachfolgend beschriebenen präpariert.
Längsschnitte des Corpus cavernosum wurden in Organbäder gelegt, die folgendes (in mM) enthielten: 118 NaCI, 4,7 KCI, 1,2 KH2PO4, MgSO4, 24,9 NaCO3, 5,5 Glucose, 2,0 Na-Pyruvat und 2,0 CaCl2. Die Streifen cavernöser, glatter Muskulatur wurden mit 2 Gramm gestreckt und mit einem Gemisch von 95% O2 und 5% CO2 während zwei Stunden äquilibriert, bevor mit dem Versuchsverfahren begonnen wurde. Dann wurden die Gewebe an Kraftwandler (Grass FT03) angeschlossen. Die Spannungsmessungen wurden mit einem MP100-System und der AcqKnowledge-Software (Biopac) digital aufgezeichnet.
Die Gewebe wurden mit Indomethacin (10 µM) vorbehandelt, um Cyclooxygenaseeffekte zu beseitigen. Durch Zugabe von Phenylephrin (10 µM) zu den Organkammern wurden Kontraktionen induziert. Nachdem die Phenylephrin-induzierte Kontraktion einen dauerhaften Zustand erreicht hatte, wurde das tricyclische Pteridinon (Pt) (Fig. 1a und 1b) oder der Stickstoffoxid-Donor S-Nitroso-N-acetylpenicillamin (SNAP) zugegeben (Fig. 2).

PDE III = target: T1, PDE III (Homo sapiens, UniProt Q14432); test: PDE subtype profile: inhibition of isolated PDE isozyme; type: biochemical; settings: PDE III aus menschlichen Plättchen
T1 construct: Die PDE-lsozyme wurden aus den folgenden Quellen isoliert; from tissue; host or cells: human platelets
Method: (§1) Die verschiedenen Formen cyclischer Nukleotidphosphodiesterasen (PDE) wurden mit üblichen Methoden isoliert. Die PDE-lsozyme wurden aus den folgenden Quellen isoliert: PDE I und PDE V aus Rinder-Aorta, PDE II aus dem linken Ventrikel von Ratten, PDE IV aus Rattenniere und PDE III aus menschlichen Plättchen.
(§2) Die PDE-Aktivität wurde in einem Reaktionsmedium gemessen, das 40 mM Tris-HCI (pH 8,0), 5 mM MgCl2, 1 mM Dithiothreitol und 0,2 µM [^3H] cyclisches GMP enthielt. Das tricyclische Pteridinon wurde in DMSO (2,5%) gelöst. Bei dieser DMSO-Konzentration wurde die Enzymaktivität zu etwa 10% inhibiert. Die IC50-Werte für das tricyclische Pteridinon wurden anhand von Dosis-Wirkungs-Kurven bestimmt, bei denen die Konzentration im Bereich von 1 nM bis 10 µM (ganze log-Inkremente) lag. Für jedes untersuchte PDE-Isozym wurden mindestens zwei IC50-Bestimmungen an verschiedenen Tagen durchgeführt.

PDE I = test: as above; type: biochemical; settings: PDE I aus Rinder-Aorta; 0,2 µM [3H] cyclisches GMP
Method: as §1, §2

PDE V = target: T2, PDE V (Bos taurus, UniProt Q28156); test: as above; type: biochemical; settings: PDE V aus Rinder-Aorta
T2 construct: Die PDE-lsozyme wurden aus den folgenden Quellen isoliert; from tissue; host or cells: bovine aorta
Method: as §1, §2

PDE IV = test: as above; type: biochemical, Ratten; settings: PDE IV aus Rattenniere
Method: as §1, §2

PDE VI = test: as above; type: biochemical; settings: source of PDE VI not given
Method: as §2

[2] = tested on: Macaca fascicularis-Affen; test: Monkey model of male erectile dysfunction (intracavernous pressure, blood pressure); type: in vivo
Katzen = test: Cat model of male erectile dysfunction (intracavernous pressure, systemic blood pressure); type: in vivo
Method: Geschlechtsreife männliche Katzen (Körpergewicht 2,9-4,6 kg) wurden mit α-Chloralose (60 mg/kg i.m.) narkotisiert. Dann wurden Hartmansche Lösung und eine Dextroselösung bei […] über die antekubitale Vene infundiert. Die Beatmung wurde über eine an einen Tierventilator (Harvard Apparatus Ltd., Boston MA) angeschlossene Tracheotomie sichergestellt. Pancuroniumbromid (0,3 ml/kg) wurde als Muskelrelaxans infundiert. Nach Bedarf wurden zusätzliche Dosen von α-Chlorase und Pancuroniumbromid gegeben, um ein gleichbleibendes Anästhesie-Niveau beizubehalten.
In der inneren Carotid-Arterie wurde ein zentraler Katheter gelegt, um eine Arterienblut-Gasanalyse (ABGA) durchzuführen und den systemischen Blutdruck in der Arterie aufzuzeichnen. Eine 23 G-Nadel wurde in das Corpus cavernosum eingeführt, um die Veränderungen des intracavernösen Drucks (ICP) zu messen. Sowohl der systemische, arterielle Blutdruck als auch der ICP wurden mittels eines Druckwandlers (Gilson P23XL-1, physiologischer Druckwandler, Ohmeda, Kanada), der an einen Polygraphen (Grass Model 7D, Quincy, MA, USA) angeschlossen war, gemessen. Zur lokalen Injektion von Versuchsverbindungen wurde ein Zweig der inneren Pudendalarterie auf einer Seite mit einem länglichen Polyethylenschlauch (PE-10-Schlauch, Original-Innendurchmesser 0,25 mm, Außendurchmesser 0,76 mm) retrograd mikrokanüliert. Dann wurden zur Verabreichung der Wirkstoffe (jeweils 0,1 ml) in den Penis die übrigen Zweige, bis auf die Penisarterie, ligiert. Mit geeigneten Ventilator-Einstellungen (z.B. Tidalvolumen 10 ml/kg; Atmungsrate 15-20/Min.) wurde eine Normoxie (pH > 7,25, PO2 > 60 mmHg, PCO2 < 40 mmHg) erzeugt und mit ABGA und einem mit der ausgeatmeten Luft verbundenen Capnometer (Modell 2200, Traverse Medical Monitors, USA) überprüft. Um die Volumeneffekte von Lösungsmitteln zu beurteilen, wurden destilliertes Wasser und normale Kochsalzlösung intraarteriell infundiert. Intraarterielles Wasser und Kochsalzlösung hatten selbst bei einem Bolus keinen Effekt auf den intracavernösen Druck (ICP).
Die Lösungen des tricyclischen Pteridinon wurden unter Verwendung einer 1%igen 6N HCI- und einer 5%igen DMSO-Lösung hergestellt. Papaverin (50 mg) + Phentolamin (5 mg) (Bimix) wurde in 5 ml mit 5% DMSO/Rest Kochsalzlösung hergestellt. Jedes Arzneimittel wurde als Bolus von 0,1 ml und 0,05 ml heparinisierter Kochsalzlösung zum Spülen infundiert.
Der Grund-ICP, ΔICP (d.h. die reine Veränderung des Grund-ICP) und Veränderungen des systemischen Blutdrucks wurden nach der intraarteriellen Injektion aufgezeichnet. Alle Daten wurden mittels eines Student's t-Test beurteilt, wobei p<0,05 als signifikant galt. Die Daten priapischer Episoden wurden bei den Berechnungen ausgeschlossen.

[3] = Pharmacokinetic experiments, plasma levels after oral administration; type: in vivo; settings: species not given
[4] = tested on: Macaca fascicularis-Affen; test: Monkey model of male erectile dysfunction (intracavernous pressure, blood pressure); type: in vivo; settings: for Maximaler Druck / Mittlerer Druckanstieg: intracavernous bolus 0,5 ml, given after nitroprusside response returned to baseline
Method: Das tricyclische Pteridinon wurde Macaca fascicularis-Affen als intracavernöse Bolusinjektion (0,5 ml, mit 0,5 ml Kochsalzlösung-Flush) verabreicht. Die Auswirkungen auf den intracavernösen Druck wurden mitlaufend gemessen und mit denen des Stickstoffoxid-Donors Nitroprussid (SNP oder NP) verglichen. Stickstoffoxid induziert eine Erektion, indem es als Guanylatcyclase-Agonist wirkt.
Die abschließende Reihe der in vivo-Versuche an Affen untersuchte die Effekte des tricyclischen Pteridinon bei intravenöser Verabreichung (1 und 3 mg/kg) 15 Minuten vor der intracavernösen Injektion von Nitroprussid (10^-5 M). Diese Vorgehensweise wurde gewählt, um zu bestimmen, ob die "systemische Verabreichung" von tricyclischem Pteridinon die Nitroprussid-induzierte, erektile Reaktion wirksam verstärkt.

[5] = i.v. bolus injection 0,5 mg/Tier

T1 sequence (Q14432 whole entry): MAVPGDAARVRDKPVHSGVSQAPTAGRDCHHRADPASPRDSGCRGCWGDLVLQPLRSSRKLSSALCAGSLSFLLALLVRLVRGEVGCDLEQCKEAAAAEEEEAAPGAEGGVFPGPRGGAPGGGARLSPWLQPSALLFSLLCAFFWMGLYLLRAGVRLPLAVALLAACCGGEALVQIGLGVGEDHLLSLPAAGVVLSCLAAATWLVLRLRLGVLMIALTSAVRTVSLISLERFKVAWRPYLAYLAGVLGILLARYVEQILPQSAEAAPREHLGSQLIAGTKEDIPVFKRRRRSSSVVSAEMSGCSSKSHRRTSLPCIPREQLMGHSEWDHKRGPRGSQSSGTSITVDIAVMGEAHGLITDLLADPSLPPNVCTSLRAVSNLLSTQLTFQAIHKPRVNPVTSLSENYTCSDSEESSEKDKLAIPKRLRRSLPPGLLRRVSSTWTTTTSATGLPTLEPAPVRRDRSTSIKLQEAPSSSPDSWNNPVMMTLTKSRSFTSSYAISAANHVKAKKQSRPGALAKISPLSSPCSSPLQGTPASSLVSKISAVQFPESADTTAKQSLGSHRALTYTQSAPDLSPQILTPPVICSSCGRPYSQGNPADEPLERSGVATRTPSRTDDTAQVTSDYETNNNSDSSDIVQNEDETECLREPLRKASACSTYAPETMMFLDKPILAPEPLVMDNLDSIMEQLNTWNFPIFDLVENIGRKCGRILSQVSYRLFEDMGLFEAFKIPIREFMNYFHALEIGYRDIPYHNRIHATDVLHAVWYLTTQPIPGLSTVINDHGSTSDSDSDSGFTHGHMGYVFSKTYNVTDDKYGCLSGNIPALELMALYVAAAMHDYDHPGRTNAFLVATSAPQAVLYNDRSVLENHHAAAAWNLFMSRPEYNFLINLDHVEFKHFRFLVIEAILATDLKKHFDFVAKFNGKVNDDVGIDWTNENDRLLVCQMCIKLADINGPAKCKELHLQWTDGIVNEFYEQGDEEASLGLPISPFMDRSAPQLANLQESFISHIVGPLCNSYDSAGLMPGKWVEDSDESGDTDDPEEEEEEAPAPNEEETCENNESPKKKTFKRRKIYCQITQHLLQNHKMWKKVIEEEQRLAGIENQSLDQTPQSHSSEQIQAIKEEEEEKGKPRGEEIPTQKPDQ

CC(=O)N[C@H](C(=O)O)C(C)(C)SN=O [SNAP, S-Nitroso-N-acetylpenicillamin, reference compound]
Relaxation der kavernösen, glatten Muskulatur ([1]; Fig. 2): unmittelbare Relaxation

CCc1nc(C)cn1-c1nc(C(C)C)c2[nH]c(=O)c3c(C)nc(CC)n3c2n1 [tricyclisches Pteridinon, 9-Ethyl-2-(2-ethyl-4-methyl-1H-imidazol-1-yl)-7-methyl-4-(2-propyl)imidazo[5,1-h]pteridin-6(5H)on]
IC50 (PDE III): > 10000 nM | IC50 (PDE I): 5.8 nM | IC50 (PDE V): 35 nM | IC50 (PDE IV): 74 nM | Relaxation der kavernösen, glatten Muskulatur ([1]; Fig. 2): unmittelbare Relaxation | IC50 ([1]; Phenylephrin 10 µM, Indomethacin 10^-5 M, Fig. 1 (Kaninchen, and tissue of impotent patients), read-out: IC50-Wert für die Inhibierung der Phenylephrin-induzierten Kontraktion): ~1000 nM | Stärke im Vergleich zu SNAP ([1]; in vitro model, Fig. 2): stärker | IC50 (PDE VI): 56 nM | Dauer des Nitroprussid-induzierten Anstiegs des cavernösen Drucks ([2]; 1 mg/kg given simultaneously with nitroprusside): verdoppelte | Dauer des Nitroprussid-induzierten Anstiegs des cavernösen Drucks ([2]; 3 mg/kg given simultaneously with nitroprusside): nahezu verdreifachten | Erektionen steif (visuelle Bestimmung) (Katzen; 0,1 mg/Tier): nicht als steif | Erektionen steif (Katzen; higher doses (Fig. 3: 0,3 and 0,5 mg/Tier)): steifen Erektion | Dauer der vorübergehenden Spitzenabfälle des systemischen Arterienblutdrucks (Katzen; [5]): ≤ 5 Minuten | Spitzenabfälle des systemischen Arterienblutdrucks (Katzen; [5]): 15,8 mmHg | Anstieg des ICP (Katzen; local intra-arterial administration, 0,1 mg/Tier, p<0,01): 5,5 mmHg | Dosis, die den ICP erhöht (Katzen; local intra-arterial injection, 0,1 ml bolus, initial dose-finding study): ≥ 0,0038 mg | ICP, Dosisabhängigkeit (Katzen; local intra-arterial injection, Fig. 3): erhöhte in dosisabhängiger Weise signifikant den ICP | Zeit bis zu signifikanten Plasmamengen nach oraler Verabreichung [3]: ≤ 30 Minuten | Anstieg des cavernösen Drucks ([4]; Affen, given before administration of nitroprusside): keinen anhaltenden Anstieg | intracavernöser Druck nach systemischer Verabreichung ([4]; Affen, i.v. 1 and 3 mg/kg, Fig. 5): wirksam erhöht | Blutdrucksenkung ([4]; Affen, i.v. administration, 1 and 3 mg/kg): 20-40 mmHg | Maximaler Druck ([4]; Affen, 10^-4 Molar): 165 (1) cm H2O | Mittlerer Druckanstieg ([4]; Affen, 10^-4 Molar): 62 (1) Δ cm H2O | Maximaler Druck ([4]; Affen, 10^-5 Molar): 103 (3) cm H2O | Mittlerer Druckanstieg ([4]; Affen, 10^-5 Molar): 51 (3) Δ cm H2O | Maximaler Druck ([4]; Affen, 10^-6 Molar): 95 (2) cm H2O | Mittlerer Druckanstieg ([4]; Affen, 10^-6 Molar): 41 (2) Δ cm H2O | Adverse finding after pretreatment ([4]; one monkey, pretreatment 3 mg/kg followed by nitroprusside 10^-5 M i.c.): Priapismus

Reference: patent EP1312365A1, “Pteridinones for the treatment of erectile dysfunctions” (Jenapharm GmbH & Co. KG, priority 2001, dated 2003)
